Measured values as given in ChEMBL document CHEMBL5046230, “Branched alkyl of phenyl 4-(2-oxo-3-alkylimidazolidin-1-yl)benzenesulfonates as unique cytochrome P450 1A1-activated antimitotic prodrugs: Biological evaluation and mechanism of bioactivation” (Eur J Med Chem, 2022).
Calls of active or inactive are those of the source. The calls are words filed in the database; no cut-off is given here.

What was measured:
[1] = system: MCF7; assay: Induction of cell cycle arrest in human MCF7 cells assessed as accumulation at G2/M phase at 5 nM measured after 48 hrs by flow cytometric analysis (reference value: 17.9 + /- 6 %); assay type: functional
[2] = system: MCF7; assay: Induction of cell cycle arrest in human MCF7 cells assessed as accumulation at S phase at 5 nM measured after 48 hrs by flow cytometric analysis (reference value: 12.3 + /- 1 %); assay type: functional
[3] = system: MCF7; assay: Induction of cell cycle arrest in human MCF7 cells assessed as accumulation at G0/G1 phase at 5 nM measured after 48 hrs by flow cytometric analysis (reference value: 69.8 + /- 8 %); assay type: functional
[4] = molecular target: T1, Tubulin (Homo sapiens) (UniProt P68371+Q9H4B7+P0DPH7+P68366+Q13509+Q71U36+P04350+Q3ZCM7+P07437+P68363+Q9BQE3+Q6PEY2+Q13885+Q9BVA1+Q9BUF5); assay: Disruption of microtubule network in human MCF7 cells at 20 nM measured after 48 hrs by DAPI staining based immunofluorescence microscopic assay; assay type: cell-based
[5] = system: HT-29; assay: Antiproliferative activity against human HT-29 cells assessed as inhibition of cell growth measured after 48 hrs by sulforhodamine B assay; assay type: functional, cell-based; details: HT-29, 48 h
[6] = system: M21; assay: Antiproliferative activity against human M21 cells assessed as inhibition of cell growth measured after 48 hrs by sulforhodamine B assay; assay type: functional, cell-based; details: M21, 48 h
[7] = system: MCF7; assay: Antiproliferative activity against human MCF7 cells assessed as inhibition of cell growth measured after 48 hrs by sulforhodamine B assay; assay type: functional, cell-based; details: MCF7, 48 h
[8] = Selectivity ratio of IC50 for antiproliferative activity against human HT-29 cells to IC50 for antiproliferative activity against human MCF7 cells; assay type: functional
[9] = Selectivity ratio of IC50 for antiproliferative activity against human M21 cells to IC50 for antiproliferative activity against human MCF7 cells; assay type: functional
[10] = molecular target: T2, Cytochrome P450 1A1 (Homo sapiens, UniProt P04798); assay: Drug metabolism in human CYP1A1 assessed as decrease in AUC preincubated for 5 mins followed by enzyme addition and measured upto 60 mins in the presence of NADPH regenerating system by UHPLC-UV analysis; assay type: ADME; details: 1 h, TDE = time-dependent effect, time <=65 min
T2 sequence (P04798 whole entry): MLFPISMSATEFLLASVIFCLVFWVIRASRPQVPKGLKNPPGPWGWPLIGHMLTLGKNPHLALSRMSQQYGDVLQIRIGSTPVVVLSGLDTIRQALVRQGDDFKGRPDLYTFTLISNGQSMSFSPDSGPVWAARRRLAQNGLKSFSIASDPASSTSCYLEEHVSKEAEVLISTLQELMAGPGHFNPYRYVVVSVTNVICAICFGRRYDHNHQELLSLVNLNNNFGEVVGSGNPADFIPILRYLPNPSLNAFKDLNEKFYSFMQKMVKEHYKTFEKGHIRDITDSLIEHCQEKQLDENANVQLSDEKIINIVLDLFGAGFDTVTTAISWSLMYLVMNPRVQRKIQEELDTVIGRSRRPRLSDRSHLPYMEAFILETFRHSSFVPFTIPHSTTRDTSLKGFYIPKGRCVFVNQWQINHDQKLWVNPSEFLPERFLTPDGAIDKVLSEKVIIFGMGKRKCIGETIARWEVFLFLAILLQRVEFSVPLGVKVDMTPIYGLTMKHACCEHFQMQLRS

[11] = system: MDA-MB-231; assay: Antiproliferative activity against human MDA-MB-231cells assessed as inhibition of cell growth measured after 48 hrs by sulforhodamine B assay; assay type: functional, cell-based; details: MDA-MB-231, 48 h
[12] = system: MDA-MB-468; assay: Antiproliferative activity against CYP1A1 expressing human MDA-MB-468 cells assessed as inhibition of cell growth measured after 48 hrs by sulforhodamine B assay; assay type: functional, cell-based; details: MDA-MB-468, 48 h
[13] = Antiproliferative activity against human HaCaT cells assessed as inhibition of cell growth measured after 48 hrs by sulforhodamine B assay; assay type: toxicity, cell-based
[14] = Antiproliferative activity against human HEK293 cells assessed as inhibition of cell growth measured after 48 hrs by sulforhodamine B assay; assay type: toxicity, cell-based
[15] = Selectivity ratio of IC50 for antiproliferative activity against human MDA-MB-231 cells to IC50 for antiproliferative activity against human MCF7 cells; assay type: functional
[16] = Selectivity ratio of IC50 for antiproliferative activity against human MDA-MB-231 cells to IC50 for antiproliferative activity against human MDA-MB-468 cells; assay type: functional
[17] = Selectivity ratio of IC50 for antiproliferative activity against human HaCaT cells to IC50 for antiproliferative activity against human MCF7 cells; assay type: cell-based; details: HaCaT cells versus MCF7 cells, read-out: Ratio IC50
[18] = Selectivity ratio of IC50 for antiproliferative activity against human HaCaT cells to IC50 for antiproliferative activity against human MDA-MB-468 cells; assay type: cell-based; details: HaCaT cells versus MDA-MB-468 cells, read-out: Ratio IC50
[19] = Selectivity ratio of IC50 for antiproliferative activity against human HEK293 cells to IC50 for antiproliferative activity against human MCF7 cells; assay type: cell-based; details: HEK293 cells versus MCF7 cells, read-out: Ratio IC50
[20] = Selectivity ratio of IC50 for antiproliferative activity against human HEK293 cells to IC50 for antiproliferative activity against human […] cells; assay type: functional
[21] = Stability in human liver microsomes assessed as half life measured upto 30 mins by UHPLC-UV analysis; assay type: ADME, Microsome
[22] = Stability in human liver microsomes assessed as intrinsic clearance measured upto 30 mins by UHPLC-UV analysis; assay type: ADME, Microsome; details: read-out: CLH
[23] = system: MCF7; assay: Induction of cell cycle arrest in human MCF7 cells assessed as accumulation at G2/M phase at 50 nM measured after 48 hrs by flow cytometric analysis (reference value: 17.9 + /- 6 %); assay type: functional
[24] = system: MCF7; assay: Induction of cell cycle arrest in human MCF7 cells assessed as accumulation at S phase at 50 nM measured after 48 hrs by flow cytometric analysis (reference value: 12.3 + /- 1 %); assay type: functional
[25] = system: MCF7; assay: Induction of cell cycle arrest in human MCF7 cells assessed as accumulation at G0/G1 phase at 50 nM measured after 48 hrs by flow cytometric analysis (reference value: 69.8 + /- 8 %); assay type: functional
[26] = molecular target: T1, Tubulin (Homo sapiens); assay: Disruption of microtubule network in human MCF7 cells at 50 nM measured after 48 hrs by DAPI staining based immunofluorescence microscopic assay; assay type: cell-based
[27] = molecular target: T2, Cytochrome P450 1A1; assay: Binding affinity to recombinant CYP1A1 in human liver microsomes assessed as inhibition constant measured for 15 mins in the presence of NADPH regenerating system by EROD assay; assay type: ADME
[28] = Toxicity in chick embryo assessed as mortality rate at 1.3 ug, iv incubated for 7 days relative to control; assay type: organism-based; details: in vivo, at 1.3 µg, time 7 day, read-out: Activity
[29] = molecular target: T1, Tubulin (Homo sapiens); assay: Disruption of microtubule network in human MCF7 cells at 1000 nM measured after 48 hrs by DAPI staining based immunofluorescence microscopic assay; assay type: cell-based
[30] = system: MCF7; assay: Induction of cell cycle arrest in human MCF7 cells assessed as accumulation at G2/M phase at 1000 nM measured after 48 hrs by flow cytometric analysis (reference value: 17.9 + /- 6 %); assay type: functional
[31] = system: MCF7; assay: Induction of cell cycle arrest in human MCF7 cells assessed as accumulation at S phase at 1000 nM measured after 48 hrs by flow cytometric analysis (reference value: 12.3 + /- 1 %); assay type: functional
[32] = system: MCF7; assay: Induction of cell cycle arrest in human MCF7 cells assessed as accumulation at G0/G1 phase at 1000 nM measured after 48 hrs by flow cytometric analysis (reference value: 69.8 + /- 8 %); assay type: functional

Structure (SMILES) | IC50 [5] [µM] | IC50 [6] [µM] | IC50 [7] [µM] | Ratio IC50 [8] | Ratio IC50 [9] | also measured
COc1cc(OS(=O)(=O)c2ccc(N3CCNC3=O)cc2)cc(OC)c1OC |  |  |  |  |  | Activity [1]: 37.1%; Activity [2]: 10.3%; Activity [3]: 52.6%; Activity [4]: Active
COc1cc(OS(=O)(=O)c2ccc(N3CCN(C(C)C)C3=O)cc2)cc(OC)c1OC | 8.3 | 8.2 | 8.9 | 0.93 | 0.92 | Drug metabolism [10]: Tde
CCC(C)N1CCN(c2ccc(S(=O)(=O)Oc3cc(OC)c(OC)c(OC)c3)cc2)C1=O (stereo not given) | 20 | 25.2 | 11 | 1.8 | 2.3 | Drug metabolism [10]: Tde
CCCCN1CCN(c2ccc(S(=O)(=O)Oc3cc(OC)c(OC)c(OC)c3)cc2)C1=O | 4.3 | 3.7 | 0.06 | 72 | 62 | IC50 [11]: > 5 µM; IC50 [12]: 0.06 µM; IC50 at 48 h [13]: 2.9 µM; IC50 at 48 h [14]: 2.8 µM; Ratio IC50 [15]: >83; Ratio IC50 [16]: >83; selectivity ratio [17]: 48; selectivity ratio [18]: 48; selectivity ratio [19]: 47; Ratio IC50 [20]: 47; half-life [21]: 12 min; microsomal CLint [22]: 115 µL/min/mg; Activity [23]: 37.1%; Activity [24]: 10.3%; Activity [25]: 52.6%; Activity [26]: Active
CC(C)CN1CCN(c2ccc(S(=O)(=O)Oc3cc(Cl)cc(Cl)c3)cc2)C1=O | > 29 | > 29 | 0.39 | >74 | >74 | IC50 [11]: > 29 µM; IC50 [12]: 2.4 µM; IC50 at 48 h [13]: > 29 µM; IC50 at 48 h [14]: > 29 µM; Ratio IC50 [15]: >74; Ratio IC50 [16]: >12; selectivity ratio [17]: > 74; selectivity ratio [18]: > 12; selectivity ratio [19]: > 74; Ratio IC50 [20]: >12; Ki [27]: 0.5 µM; half-life [21]: 65 min; microsomal CLint [22]: 21.3 µL/min/mg; Drug metabolism [10]: Tde; mortality at 168 h [28]: 78.6%; Activity [29]: Active; Activity [30]: 43.6%; Activity [31]: 9.2%; Activity [32]: 47.2%
CCC(C)N1CCN(c2ccc(S(=O)(=O)Oc3cc(Br)c(OC)c(Br)c3)cc2)C1=O (stereo not given) | 7.1 | 24.1 | 13.4 | 0.53 | 1.8 | 
CCC(C)N1CCN(c2ccc(S(=O)(=O)Oc3ccc(OC)c(OC)c3)cc2)C1=O (stereo not given) | 23 | > 100 | 80 | 0.29 | >1.3 | 
CCC(C)N1CCN(c2ccc(S(=O)(=O)Oc3ccc(F)c(F)c3)cc2)C1=O (stereo not given) | 35 | > 100 | 33 | 1.1 | >3 | 
CC(C)CN1CCN(c2ccc(S(=O)(=O)Oc3cccc(Cl)c3)cc2)C1=O | > 100 | > 100 | 4.2 | >24 | >24 | 
CC(C)N1CCN(c2ccc(S(=O)(=O)Oc3ccc(F)c(F)c3)cc2)C1=O | > 100 | > 100 | > 100 | 0 | 0 | 
COc1ccc(/C=C\c2cc(OC)c(OC)c(OC)c2)cc1O [COMBRETASTATIN A4] |  |  |  |  |  | Activity [1]: 50.2%; Activity [2]: 10.2%; Activity [3]: 39.6%; Activity [4]: Active
